Data taken from patent US5270302A, “Derivatives of tetrapeptides as CCK agonists” (priority 1991, dated 1993).
Read-outs that look alike come from different tables or passages of the source. *1 amine or outer side, *2 acyl side, *3 side chain or, on linkers, in order; H or OH if unused. Where a SMILES comes first, the peptide text is derived from it. Side-chain parts run from the residue outwards. [ ]: non-standard residue; d: D form. The star is where a group is joined. ξ: configuration not given here. ξαMeW = CC(N)(Cc1c[nH]c2ccccc12)C(=O)O; 1Nal = N[C@@H](Cc1cccc2ccccc12)C(=O)O; Desaminotyrosyl = O=C(CCc1ccc(O)cc1)*; Adoc = O=C(OC12CC3CC(CC(C3)C1)C2)*; NMeF = CN[C@@H](Cc1ccccc1)C(=O)O; NMeD = CN[C@@H](CC(=O)O)C(=O)O; NH(2-Me-phenyl) = Cc1ccccc1N*; βNA = c1ccc2cc(N*)ccc2c1; Boc = CC(C)(C)OC(=O)*; CO = O=C([*:1])[*:2]; Bz = O=C(c1ccccc1)*; Moc = COC(=O)*

Columns and labels:
Type-A CCK receptor = biological target: T1, Type-A CCK receptor (Cavia porcellus, UniProt Q63931); assay: Radioligand binding of [125I]BH-CCK-8 in guinea pig pancreatic membrane preparations
T1 construct: Cortical and pancreatic membranes were prepared as described; from tissue; host or cells: guinea pig pancreas membranes
T1 sequence (Q63931 1-430): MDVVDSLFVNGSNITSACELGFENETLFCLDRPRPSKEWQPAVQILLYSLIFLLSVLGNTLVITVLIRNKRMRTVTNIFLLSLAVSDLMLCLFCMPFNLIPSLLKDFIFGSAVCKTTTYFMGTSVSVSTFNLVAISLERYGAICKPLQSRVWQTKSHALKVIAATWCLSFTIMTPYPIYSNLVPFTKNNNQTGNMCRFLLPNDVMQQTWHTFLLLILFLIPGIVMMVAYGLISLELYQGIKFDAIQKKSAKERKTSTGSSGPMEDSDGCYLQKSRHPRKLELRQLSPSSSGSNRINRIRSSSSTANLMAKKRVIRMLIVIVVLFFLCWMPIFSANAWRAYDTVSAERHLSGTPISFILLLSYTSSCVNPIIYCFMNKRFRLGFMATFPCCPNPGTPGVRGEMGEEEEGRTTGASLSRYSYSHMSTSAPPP
Excerpt: (§1) CCK-8 [Asp-Tyr(SO3 H)-Met-Gly-Trp-Met-Asp-PheNH2 ], bestatin and phosphoramidion were purchased from Peptide International (Louisville, Ky.). EGTA (ethylene glycol-bis-(β-aminoethyl) N,N,N',N'-tetraacetic acid), HEPES (4-(2-hydroxyethyl)-1-piperazine-enthanesulfonic acid) and BSA (bovine serum albumin) were purchased from Sigma Chemical Co. (St. Louis, Mo.). [^125 I]-Bolton-Hunteer (BH-CCK-8) (specific activity, 2200 Ci/mmol) was obtained from New England Nuclear (Boston, Mass.). Male guinea pigs, 250 to 325 g, were obtained from Scientific Small Animal Laboratory and Farm (Arlington Heights, Ill.). Collagenase, code CLSPA was purchased from Worthington (Frehold, N.J.).
(§2) Protocol For Radioligand Binding Experiments in Guinea Pig Cerebral Cortical and Pancreatic Membrane Preparations
(§3) Cortical and pancreatic membranes were prepared as described (Lin and Miller; J. Pharmacol. Exp. Ther. 1985, 232:775-780,). In brief, cortex and pancreas were removed and rinsed with ice-cold saline. Visible fat and connective tissues were removed from the pancreas. […] The homogenates were entrifuged for 10 minutes at 1075×g and pellets were discarded. The supernatants were saved and centrifuged at 38,730×g for 20 minutes. The resultant pellets were rehomogenized in 25 mL of 50 mM Tris-HCl buffer with a Teflon-glass homogenizer, 5 up and down strokes. The homogenates were centrifuged again at 38,730×g for 20 minutes. Pellets werre then resuspended in 20 mM HEPES, containing 1 mM EGTA, 118 mM NaCl, 4.7 mM KCl, 5 mM MgCl2, 100 μM bestatin, 3 μM phosphoramidon, pH 7.4 at 22° C. with a Teflon-glass homogenizer, 15 up and down strokes. Resuspension volume for the cortex was 15-18 mL per gram of original wet weight and 60 mL per gram for the pancreas.
(§4) [^125 I]Bolton-Hunter CCK-8 and test compounds were diluted with HEPES-EGTA-salt buffer (see above) containing 0.5% BSA. To 1 mL Skatron polystyrene tubes were added 25 μL of test compounds, 25 μL of [^125 I]BH-CCK-8 and 200 μL of membrane suspension. The final BSA concentration was 0.1%. The cortical tissues were incubated at 30° C. for 150 minutes and pancreatic tissues were incubated at 37° C. for 150 min. Incubations were terminated by filtration using Skatron Cell Harvester and SS32 microfiber filter mats. […] IC50 s were determined from the Hill analysis.

Type-B CCK receptor = biological target: T2, Type-B CCK receptor (Cavia porcellus, UniProt H0VZC5); assay: Radioligand binding of [125I]BH-CCK-8 in guinea pig cerebral cortical membrane preparations
T2 construct: Cortical and pancreatic membranes were prepared as described; from tissue; host or cells: guinea pig cerebral cortex membranes
T2 sequence (H0VZC5 1-426): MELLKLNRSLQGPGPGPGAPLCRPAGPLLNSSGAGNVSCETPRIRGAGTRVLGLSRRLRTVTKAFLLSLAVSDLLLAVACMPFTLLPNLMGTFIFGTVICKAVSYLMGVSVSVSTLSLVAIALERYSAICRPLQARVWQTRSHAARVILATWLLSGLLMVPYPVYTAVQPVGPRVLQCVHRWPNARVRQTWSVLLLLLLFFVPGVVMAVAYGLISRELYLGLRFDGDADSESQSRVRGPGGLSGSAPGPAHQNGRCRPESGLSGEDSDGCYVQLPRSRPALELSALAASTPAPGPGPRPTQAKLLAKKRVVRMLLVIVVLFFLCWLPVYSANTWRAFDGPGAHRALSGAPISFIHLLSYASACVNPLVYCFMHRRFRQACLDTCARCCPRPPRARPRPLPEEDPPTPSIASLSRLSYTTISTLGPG
Excerpt: as §1, §2, §3, §4

[1] = guinea pig pancreatic membranes, 37° C., 150 min, read-out: IC50 (nM) 125I-BH-CCK-8 Type-A receptor
[2] = IC50 (nM) 125I-BH-CCK-8 Type-A receptor, guinea pig pancreatic membranes, 37° C., 150 min
[3] = IC50 (nM) 125I-BH-CCK-8 Type-B receptor, guinea pig cortical membranes, 30° C., 150 minutes
[4] = guinea pig cortical membranes, 30° C., 150 minutes, read-out: IC50 (nM) 125I-BH-CCK-8 Type-B receptor

Row | SMILES | IC50 (Type-A CCK receptor; [1]) [nM] | IC50 (Type-A CCK receptor; [2]) [nM] | IC50 (Type-B CCK receptor; [3]) [nM] | IC50 (Type-B CCK receptor; [4]) [nM] | further results
1 | CC(C)(C)OC(=O)N[C@@H](Cc1c[nH]c2ccccc12)C(=O)N[C@@H](CCCCNC(=O)Nc1ccc2ccccc2c1)C(=O)N[C@@H](CC(=O)O)C(=O)N[C@@H](Cc1ccccc1)C(N)=O [Example 44, t-BOC-Trp-Lys(ε-N-(β-naphthyl)aminocarbonyl)-Asp-PheNH2] (Boc-WK([CO-βNA])DF-NH2) | 16 | – | – | – | IC50 (Type-B CCK receptor): 3200 nM
2 | Cc1ccccc1NC(=O)NCCCC[C@H](NC(=O)[C@H](Cc1c[nH]c2ccccc12)NC(=O)c1ccccc1)C(=O)N(C)[C@@H](CC(=O)O)C(=O)N[C@@H](Cc1ccccc1)C(N)=O [Example 90, Benzoyl-Trp-Lys(ε-N-(2-methylphenyl)aminocarbonyl)-(NMe)Asp-PheNH2] (Bz-WK([CO-NH(2-Me-phenyl)])[NMeD]F-NH2) | – | 2.7 | 5100 | – | –
3 | COC(=O)N[C@@H](Cc1c[nH]c2ccccc12)C(=O)N[C@@H](CCCCNC(=O)Nc1ccccc1C)C(=O)N(C)[C@@H](CC(=O)O)C(=O)N[C@@H](Cc1ccccc1)C(N)=O [Example 81, Methoxycarbonyl-Trp-Lys(ε-N-(2-methylphenyl)aminocarbonyl)-(NMe)Asp-PheNH2] (Moc-WK([CO-NH(2-Me-phenyl)])[NMeD]F-NH2) | – | 2.1 | > 10000 | – | –
4 | Cc1ccccc1NC(=O)NCCCC[C@H](NC(=O)CCc1cccc2ccccc12)C(=O)N[C@@H](CC(=O)O)C(=O)N(C)[C@@H](Cc1ccccc1)C(N)=O [Example 111, (3-(α-Naphthyl)propionyl)-Lys(ε-N-(2-methylphenyl)aminocarbonyl)-Asp-(NMe)PheNH2] | 77 | – | – | > 10000 | –
5 | CC(C)(C)OC(=O)N[C@@H](Cc1c[nH]c2ccccc12)C(=O)N[C@@H](CCCCNC(=O)CCc1ccc(O)cc1)C(=O)N[C@@H](CC(=O)O)C(=O)N[C@@H](Cc1cccc2ccccc12)C(N)=O [Example 21, t-BOC-Trp-Lys(ε-N-(3-(4-hydroxyphenyl)propionyl))-Asp-α-NalNH2] (Boc-WK(Desaminotyrosyl)D[1Nal]-NH2) | 33 | – | – | 1200 | –
6 | Cc1ccccc1NC(=O)NCCCC[C@H](NC(=O)C(C#N)Cc1c[nH]c2ccccc12)C(=O)N[C@@H](CC(=O)O)C(=O)N[C@@H](Cc1ccccc1)C(N)=O (stereo partly shown) [Example 64, (2-Cyano-3-(3-indolyl)propionyl)-Lys(ε-N-(2-methylphenyl)aminocarbonyl)-Asp-PheNH2] | 10 | – | – | 640 | –
7 | Cc1ccccc1NC(=O)NCCCC[C@H](NC(=O)C(C)(N)Cc1c[nH]c2ccccc12)C(=O)N(C)[C@@H](CC(=O)O)C(=O)N[C@@H](Cc1ccccc1)C(N)=O (stereo partly shown) [Example 123] (H-[ξαMeW]K([CO-NH(2-Me-phenyl)])[NMeD]F-NH2) | – | 5.9 | > 10000 | – | –
8 | Cc1ccccc1NC(=O)NCCCC[C@H](NC(=O)[C@H](Cc1c[nH]c2ccccc12)NC(=O)OC12CC3CC(CC(C3)C1)C2)C(=O)N[C@@H](CC(=O)O)C(=O)N(C)[C@@H](Cc1ccccc1)C(N)=O [Example 75, 1-Adamantyloxycarbonyl-Trp-Lys(ε-N-(2-methylphenyl)aminocarbonyl)-Asp-(NMe)PheNH2] (Adoc-WK([CO-NH(2-Me-phenyl)])D[NMeF]-NH2) | – | – | – | – | IC50 (Type-A CCK receptor): 17 nM; IC50 (Type-B CCK receptor): 10000 nM
